In assay [1] the test system is TNF-α. In words: LPS-stimulated whole bovine blood assay, MSD cytokine detection. The assay is classed as cell-based. The note with it: Bos taurus, LPS-stimulated bovine whole blood; read-out: TNF-α (IC50 μM). On the procedure: Therefore, a fresh whole bovine blood assay was developed with LPS as a stimulant (TLR-4 agonist) and with IL-1β and TNF-α as the read-out. Compounds of the invention were evaluated against a positive control for their ability to inhibit LPS-induced IL-1β and TNF-α as an overall evaluation of relative potency and modulation of target pathways (Table 6).
In the bovine whole blood in vitro screening assay the inhibition of TNFα as induced by stimulation by lipopolysaccharide (LPS) and as measured by half the maximal inhibitory concentration (IC50) is recognized as the primary biomarker of immunomodulation potency upon pretreatment with the compounds of the invention. IL-1β is a mediator of the inflammation response and is involved in a number of cellular activities including proliferation, differentiation and apoptosis. IL-1β is also released upon cellular stress or cytotoxicity or upon TLR stimulation. In the bovine whole blood assay the stimulation of IL-1β release upon increasing concentration of test compound is seen as a potential cellular toxicity signal as induced by the test compound. In order to estimate a therapeutic index from the in vitro assay a differential between the TNFα IC50 (immunomodulation potency) versus the perceived cellular toxicity concentration (IL-1β release or overstimulation) was utilized.

The test system of assay [2] is IL-1β. The description is as above. In kind it is cell-based. The note with it: overstimulation of IL-1β, LPS-stimulated bovine whole blood. As for the experimental part:
The effect of multiple cytokines was not easily quantified using single cell types. Therefore, a fresh whole bovine blood assay was developed with LPS as a stimulant (TLR-4 agonist) and with IL-1β and TNF-α as the read-out. Compounds of the invention were evaluated against a positive control for their ability to inhibit LPS-induced IL-1β and TNF-α as an overall evaluation of relative potency and modulation of target pathways (Table 6).
In order to correlate RNA sequencing data to cytokine changes the whole blood assay was utilized. […] The enhancement result represents an overall stimulation of cytokine levels due to cellular stress or potential toxicity with increasing concentrations of the compound, representing a typical bell shape response curve for immunomodulatory activity.
In the bovine whole blood in vitro screening assay the inhibition of TNFα as induced by stimulation by lipopolysaccharide (LPS) and as measured by half the maximal inhibitory concentration (IC50) is recognized as the primary biomarker of immunomodulation potency upon pretreatment with the compounds of the invention.

Assay [3] concerns BRD pathogens, M. haemolytica and P. multocida. In words: MIC screening panel of BRD pathogens (antibacterial / non-antibacterial). The note with it: read-out: antibacterial / non-antibacterial (MIC for the BRD pathogens).

Consider `CCCNC[C@]1(O)[C@H](C)O[C@@H](O[C@H]2[C@H](C)[C@@H](O[C@@H]3O[C@H](C)C[C@H](N(C)C(=O)N(CC(F)(F)F)c4ccccc4)[C@H]3O)[C@](C)(O)C[C@@H](C)CN[C@H](C)[C@@H](O)[C@](C)(O)[C@@H](CC)OC(=O)[C@@H]2C)C[C@@]1(C)OC` [Example H-54, 1-((2S,3R,4S,6R)-2-(((2R,3S,4R,5R,8R,10R,11R,12S,13S,14R)-2-ethyl-3,4,10-trihydroxy-13-(((2R,4R,5S,6S)-5-hydroxy-4-methoxy-4,6-dimethyl-5-((propylamino)methyl)tetrahydro-2H-pyran-2-yl)oxy)-3,5,8,10,12,14-hexamethyl-15-oxo-1-oxa-6-azacyclopentadecan-11-yl)oxy)-3-hydroxy-6-methyltetrahydro-2H-pyran-4-yl)-1-methyl-3-phenyl-3-(2,2,2-trifluoroethyl)urea], for which the IC50 (in general, the concentration at which inhibition is half-maximal) in assay [1] came out at 9 µM. Moreover, the “IL-1β OS of LPS” value in assay [2] came out at 6 µM. In addition, the MIC in assay [3] was greater than 64 µg/mL.
As for `CCCNC[C@]1(O)[C@H](C)O[C@@H](O[C@H]2[C@H](C)[C@@H](O[C@@H]3O[C@H](C)C[C@H](N(C)C(=O)Nc4ccc(C#N)cc4)[C@H]3O)[C@](C)(O)C[C@@H](C)CN[C@H](C)[C@@H](O)[C@](C)(O)[C@@H](CC)OC(=O)[C@@H]2C)C[C@@]1(C)OC` [Example H-77, 3-(4-cyanophenyl)-1-((2S,3R,4S,6R)-2-(((2R,3S,4R,5R,8R,10R,11R,12S,13S,14R)-2-ethyl-3,4,10-trihydroxy-13-(((2R,4R,5S,6S)-5-hydroxy-4-methoxy-4,6-dimethyl-5-((propylamino)methyl)tetrahydro-2H-pyran-2-yl)oxy)-3,5,8,10,12,14-hexamethyl-15-oxo-1-oxa-6-azacyclopentadecan-11-yl)oxy)-3-hydroxy-6-methyltetrahydro-2H-pyran-4-yl)-1-methylurea], in assay [1], the IC50 stood at 30 µM. Further, the “IL-1β OS of LPS” value in assay [2] was determined as 200 µM. Further, the MIC in assay [3] is greater than 64 µg/mL.
Regarding `CC[C@H]1OC(=O)[C@H](C)[C@@H](O[C@H]2C[C@@](C)(OC)[C@](O)(CN3Cc4nccnc4C3)[C@H](C)O2)[C@H](C)[C@@H](O[C@@H]2O[C@H](C)C[C@H](N(C)C(=O)N(C)c3ccccc3)[C@H]2O)[C@](C)(O)C[C@@H](C)CN[C@H](C)[C@@H](O)[C@]1(C)O` [Example J-16, 1-((2S,3R,4S,6R)-2-(((2R,3S,4R,5R,8R,10R,11R,12S,13S,14R)-13-(((2R,4R,5S,6S)-5-((5,7-dihydro-6H-pyrrolo[3,4-b]pyrazin-6-yl)methyl)-5-hydroxy-4-methoxy-4,6-dimethyltetrahydro-2H-pyran-2-yl)oxy)-2-ethyl-3,4,10-trihydroxy-3,5,8,10,12,14-hexamethyl-15-oxo-1-oxa-6-azacyclopentadecan-11-yl)oxy)-3-hydroxy-6-methyltetrahydro-2H-pyran-4-yl)-1,3-dimethyl-3-phenylurea], the IC50 in assay [1] is 60 µM. In addition, the “IL-1β OS of LPS” value in assay [2] worked out at 40 µM. Also, in assay [3], the MIC is greater than 64 µg/mL.
Consider `CC[C@H]1OC(=O)[C@H](C)[C@@H](O[C@H]2C[C@@](C)(OC)[C@](O)(CN3CC(N4CCCCC4)C3)[C@H](C)O2)[C@H](C)[C@@H](O[C@@H]2O[C@H](C)C[C@H](N(C)C(=O)N(C)c3ccccc3)[C@H]2O)[C@](C)(O)C[C@@H](C)CN[C@H](C)[C@@H](O)[C@]1(C)O` [Example J-19, 1-((2S,3R,4S,6R)-2-(((2R,3S,4R,5R,8R,10R,11R,12S,13S,14R)-2-ethyl-3,4,10-trihydroxy-13-(((2R,4R,5S,6S)-5-hydroxy-4-methoxy-4,6-dimethyl-5-((3-(piperidin-1-yl)azetidin-1-yl)methyl)tetrahydro-2H-pyran-2-yl)oxy)-3,5,8,10,12,14-hexamethyl-15-oxo-1-oxa-6-azacyclopentadecan-11-yl)oxy)-3-hydroxy-6-methyltetrahydro-2H-pyran-4-yl)-1,3-dimethyl-3-phenylurea], for which, in assay [1], the IC50 amounted to 19 µM. In addition, the “IL-1β OS of LPS” value in assay [2] came to 16 µM. Moreover, the MIC in assay [3] is greater than 64 µg/mL.

Values taken from patent US12295936B2, “Immunomodulating urea azalides” (Zoetis Services LLC, priority 2020, dated 2025).
